Laboratory results taken from patent US8802597B2, “Herbicidal pyrimidines” (E I du Pont de Nemours and Company, priority 2003, dated 2014).
Like-named read-outs stand apart in the source and are kept apart here.

Tests used:
Type in all cases: in vivo
wild oat (Avena fatua) = test: Test B postemergence; conditions: Avena fatua, post-emergence
Method in brief: (§1)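 Plants treated pre- or postemergence were compared visually with controls after 13 to 15 days. Ratings ran from 0, no effect, to 100, complete control.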

[1] = tested on: blackgrass (Alopecurus myosuroides); test: Test B postemergence; conditions: Alopecurus myosuroides, post-emergence
Method in brief: as §1

[2] = tested on: giant foxtail (Setaria faberii); test: Test B pre/postemergence; conditions: Setaria faberi; for pest or weed control at 62 g/ha: 62 g ai/ha; for pest or weed control at 250 g/ha: 250 g ai/ha
Method in brief: as §1

[3] = tested on: crabgrass (Digitaria sanguinalis); test: Test B pre/postemergence; conditions: Digitaria sanguinalis; for pest or weed control at 62 g/ha: 62 g ai/ha; for pest or weed control at 250 g/ha: 250 g ai/ha
Method in brief: as §1

corn (Zea mays) = test: Test B pre/postemergence; conditions: Zea mays; for Corn plant response rating (crop injury, 0 = no effect, 100 = complete kill) at 250 g/ha: 250 g ai/ha
Method in brief: as §1

[4] = tested on: barnyardgrass (Echinochloa crus-galli); test: Test B pre/postemergence; conditions: Echinochloa crus-galli; for pest or weed control at 62 g/ha: 62 g ai/ha; for pest or weed control at 250 g/ha: 250 g ai/ha
Method in brief: as §1

[5] = tested on: wheat (Triticum aestivum); test: Test B pre/postemergence; conditions: Triticum aestivum; for plant injury at 62 g/ha: 62 g ai/ha; for plant injury at 250 g/ha: 250 g ai/ha
Method in brief: as §1

[6] = tested on: cocklebur (Xanthium strumarium); test: Test B pre/postemergence; conditions: Xanthium strumarium; for pest or weed control at 62 g/ha: 62 g ai/ha; for pest or weed control at 250 g/ha: 250 g ai/ha
Method in brief: as §1

[7] = tested on: velvetleaf (Abutilon theophrasti); test: Test B pre/postemergence; conditions: Abutilon theophrasti; for pest or weed control at 62 g/ha: 62 g ai/ha; for pest or weed control at 250 g/ha: 250 g ai/ha
Method in brief: as §1

[8] = tested on: Surinam grass (Brachiaria decumbens); test: Test B pre/postemergence; conditions: Urochloa decumbens; for pest or weed control at 62 g/ha: 62 g ai/ha; for pest or weed control at 250 g/ha: 250 g ai/ha
Method in brief: as §1

[9] = tested on: morningglory (Ipomoea coccinea); test: Test B pre/postemergence; conditions: Ipomoea; for pest or weed control at 62 g/ha: 62 g ai/ha; for pest or weed control at 250 g/ha: 250 g ai/ha
Method in brief: as §1

[10] = tested on: pigweed (Amaranthus retroflexus); test: Test B pre/postemergence; conditions: Amaranthus retroflexus; for pest or weed control at 62 g/ha: 62 g ai/ha; for pest or weed control at 250 g/ha: 250 g ai/ha
Method in brief: as §1

[11] = tested on: lambsquarters (Chenopodium album); test: Test B pre/postemergence; conditions: Chenopodium album, post-emergence, Postemergence
Method in brief: as §1

[12] = pre-emergence, Preemergence, scale 0 to 100 (0 no effect, 100 complete control), read-out: Plant response rating, Barnyardgrass
[13] = pre-emergence, Preemergence, scale 0 to 100 (0 no effect, 100 complete control), read-out: Plant response rating, Wheat

CCOC(=O)c1nc(C2CC2)nc(NC(C)=O)c1Br [Compound 53]
pest or weed control at 62 g/ha (wild oat (Avena fatua); 62 g ai/ha, scale 0 to 100 (0 no effect, 100 complete control), read-out: Oat, Wild plant response rating): 30% | pest or weed control at 250 g/ha (wild oat (Avena fatua); 250 g ai/ha, scale 0 to 100, read-out: Plant response rating, Oat, Wild): 60% | pest or weed control at 62 g/ha ([1]; 62 g ai/ha, scale 0 to 100 (0 no effect, 100 complete control), read-out: Blackgrass plant response rating): 20% | pest or weed control at 250 g/ha ([1]; 250 g ai/ha, scale 0 to 100, read-out: Plant response rating, Blackgrass): 60% | pest or weed control at 62 g/ha ([2]; post-emergence, Postemergence, scale 0 to 100 (0 no effect, 100 complete control), read-out: Foxtail, Giant plant response rating): 30% | pest or weed control at 250 g/ha ([2]; post-emergence, Postemergence, scale 0 to 100, read-out: Plant response rating, Foxtail, Giant): 70% | pest or weed control at 250 g/ha ([2]; pre-emergence, Preemergence, scale 0 to 100 (0 no effect, 100 complete control), read-out: Plant response rating, Foxtail, Giant): 50% | pest or weed control at 62 g/ha ([2]; pre-emergence, Preemergence, scale 0 to 100, 0 no effect, 100 complete control, read-out: Plant response rating, Foxtail, Giant): 0% | pest or weed control at 62 g/ha ([3]; post-emergence, Postemergence, scale 0 to 100 (0 no effect, 100 complete control), read-out: Crabgrass plant response rating): 0% | pest or weed control at 250 g/ha ([3]; post-emergence, Postemergence, scale 0 to 100, read-out: Plant response rating, Crabgrass): 30% | pest or weed control at 62 g/ha ([3]; pre-emergence, Preemergence, scale 0 to 100, 0 no effect, 100 complete control, read-out: Plant response rating, Crabgrass): 0% | pest or weed control at 250 g/ha ([3]; pre-emergence, Preemergence, scale 0 to 100 (0 no effect, 100 complete control), read-out: Plant response rating, Crabgrass): 50% | plant injury at 62 g/ha (corn (Zea mays); post-emergence, Postemergence, 62 g ai/ha, scale 0 to 100 (0 no effect, 100 complete control), read-out: Corn plant response rating): 0% | Corn plant response rating (crop injury, 0 = no effect, 100 = complete kill) at 250 g/ha (corn (Zea mays); post-emergence, Postemergence, scale 0 to 100): 70% | Corn plant response rating (crop injury, 0 = no effect, 100 = complete kill) at 62 g/ha (corn (Zea mays); pre-emergence, Preemergence, 62 g ai/ha, scale 0 to 100, 0 no effect, 100 complete control): 0% | Corn plant response rating (crop injury, 0 = no effect, 100 = complete kill) at 250 g/ha (corn (Zea mays); pre-emergence, Preemergence, scale 0 to 100 (0 no effect, 100 complete control)): 0% | pest or weed control at 62 g/ha ([4]; post-emergence, Postemergence, scale 0 to 100 (0 no effect, 100 complete control), read-out: Barnyardgrass plant response rating): 80% | pest or weed control at 250 g/ha ([4]; post-emergence, Postemergence, scale 0 to 100, read-out: Plant response rating, Barnyardgrass): 90% | pest or weed control at 62 g/ha [4, 12]: 0% | pest or weed control at 250 g/ha [4, 12]: 70% | plant injury at 62 g/ha ([5]; post-emergence, Postemergence, scale 0 to 100 (0 no effect, 100 complete control), read-out: Wheat plant response rating): 30% | plant injury at 250 g/ha ([5]; post-emergence, Postemergence, scale 0 to 100, read-out: Plant response rating, Wheat): 60% | plant injury at 62 g/ha [5, 13]: 0% | plant injury at 250 g/ha [5, 13]: 40% | pest or weed control at 62 g/ha ([6]; post-emergence, Postemergence, scale 0 to 100 (0 no effect, 100 complete control), read-out: Cocklebur plant response rating): 50% | pest or weed control at 250 g/ha ([6]; post-emergence, Postemergence, scale 0 to 100, read-out: Plant response rating, Cocklebur): 90% | pest or weed control at 62 g/ha ([6]; pre-emergence, Preemergence, scale 0 to 100, 0 no effect, 100 complete control, read-out: Plant response rating, Cocklebur): 60% | pest or weed control at 250 g/ha ([6]; pre-emergence, Preemergence, scale 0 to 100 (0 no effect, 100 complete control), read-out: Plant response rating, Cocklebur): 100% | pest or weed control at 62 g/ha ([7]; post-emergence, Postemergence, scale 0 to 100 (0 no effect, 100 complete control), read-out: Velvetleaf plant response rating): 40% | pest or weed control at 250 g/ha ([7]; post-emergence, Postemergence, scale 0 to 100, read-out: Plant response rating, Velvetleaf): 80% | pest or weed control at 62 g/ha ([7]; pre-emergence, Preemergence, scale 0 to 100, 0 no effect, 100 complete control, read-out: Plant response rating, Velvetleaf): 20% | pest or weed control at 250 g/ha ([7]; pre-emergence, Preemergence, scale 0 to 100 (0 no effect, 100 complete control), read-out: Plant response rating, Velvetleaf): 90% | pest or weed control at 62 g/ha ([8]; post-emergence, Postemergence, scale 0 to 100 (0 no effect, 100 complete control), read-out: Surinam Grass plant response rating): 10% | pest or weed control at 250 g/ha ([8]; post-emergence, Postemergence, scale 0 to 100, read-out: Plant response rating, Surinam Grass): 50% | pest or weed control at 250 g/ha ([8]; pre-emergence, Preemergence, scale 0 to 100 (0 no effect, 100 complete control), read-out: Plant response rating, Surinam Grass): 30% | pest or weed control at 62 g/ha ([8]; pre-emergence, Preemergence, scale 0 to 100, 0 no effect, 100 complete control, read-out: Plant response rating, Surinam Grass): 0% | pest or weed control at 62 g/ha ([9]; post-emergence, Postemergence, scale 0 to 100 (0 no effect, 100 complete control), read-out: Morningglory plant response rating): 90% | pest or weed control at 250 g/ha ([9]; post-emergence, Postemergence, scale 0 to 100, read-out: Plant response rating, Morningglory): 90% | pest or weed control at 62 g/ha ([9]; pre-emergence, Preemergence, scale 0 to 100, 0 no effect, 100 complete control, read-out: Plant response rating, Morningglory): 90% | pest or weed control at 250 g/ha ([9]; pre-emergence, Preemergence, scale 0 to 100 (0 no effect, 100 complete control), read-out: Plant response rating, Morningglory): 100% | pest or weed control at 62 g/ha ([10]; post-emergence, Postemergence, scale 0 to 100 (0 no effect, 100 complete control), read-out: Pigweed plant response rating): 80% | pest or weed control at 250 g/ha ([10]; post-emergence, Postemergence, scale 0 to 100, read-out: Plant response rating, Pigweed): 100% | pest or weed control at 62 g/ha ([10]; pre-emergence, Preemergence, scale 0 to 100, 0 no effect, 100 complete control, read-out: Plant response rating, Pigweed): 60% | pest or weed control at 250 g/ha ([10]; pre-emergence, Preemergence, scale 0 to 100 (0 no effect, 100 complete control), read-out: Plant response rating, Pigweed): 100% | pest or weed control at 62 g/ha ([11]; 62 g ai/ha, scale 0 to 100 (0 no effect, 100 complete control), read-out: Lambsquarters plant response rating): 90% | pest or weed control at 250 g/ha ([11]; 250 g ai/ha, scale 0 to 100, read-out: Plant response rating, Lambsquarters): 100%
